The record followed here is patent publication US20120184556A1, “SUBSTITUTED ENZOIMIDAZOLESULFONAMIDES AND SUBSTITUTED INDOLESULFONAMIDES AS MGLUR4 POTENTIATORS” (priority 2009, published 2012).

SMILES strings stand for the structures. Where only a bound is given, the exact number is not on record here.

In this experiment the target is T1, human mGluR4 (Homo sapiens, UniProt Q14833).
T1 construct: expressed in transfected cells; host or cells: Chinese Hamster Ovary (CHO) cells
As to the kind of experiment: human mGluR4 potentiation assay, CHO cells, Fluo-4 calcium fluorescence, agonist EC20. It is filed as cell-based. The settings on record: for Emax: CHO, maximum extent of potentiation, human mGluR4, read-out: GluMax; for EC50: potentiation of human mGluR4 response to EC20 agonist, read-out: hEC50. How it is done:
The disclosed compounds and compositions can be evaluated for their ability to act as a potentiator of metabotropic glutamate receptor activity, in particular mGluR4 activity, by any suitable known methodology known in the art. For example, Chinese Hamster Ovary (CHO) cells transfected with human mGluR4 or HEK cells co-transfected with rat mGluR4 and the G-protein regulated Inwardly Rectifying Potassium channel (GIRK) were plated in clear bottom assay plates for assay in a Hamamatsu FDSS Fluorometric Plate Reader. The cells were loaded with either the Ca2+-sensitive fluorescent dye Fluo-4 or the thallium responsive dye BTC, AM and the plates were washed and placed into a suitable kinetic plate reader. For human mGluR4 assays, a fluorescence baseline was established for 3-5 seconds, the disclosed compounds were then added to the cells, and the response in cells was measured. Approximately two and a half minutes later, a concentration of mGluR4 agonist (e.g. glutamate or L-AP4) eliciting approximately 20% (EC20) of the maximal agonist response was added to the cells, and the response was measured. Two minutes later, a concentration of mGluR4 agonist (e.g. glutamate or L-AP4) eliciting 80% (EC80) of the maximal agonist response was added to the cells, and the response was measured. For rat mGluR4/GIRK experiments, a baseline was established for approximately five seconds, disclosed compounds were added, and either an EC20 or EC80 concentration of agonist was added approximately two and one half minutes later. Potentiation of the agonist response of mGluR4 by the disclosed compounds was observed as an increase in response to the EC20 concentration of agonist in the presence of compound compared to the response to agonist in the absence of compound. Similarly, antagonism of the agonist response of mGluR4 by the disclosed compounds was observed as a decrease in response to the EC80 concentration of agonist in the presence of compound compared to the response to agonist in the absence of compound.
The above described assay operated in two modes. In the first mode, a range of concentrations of the disclosed compounds are added to cells, followed by a single fixed concentration of agonist. If the compound acts as a potentiatior, an EC50 value for potentiation and a maximum extent of potentiation by the compound at this concentration of agonist is determined by non-linear curve fitting. If the compound acts as a noncompetitive antagonist, an IC50 value is determined by non-linear curve fitting. In the second mode, several fixed concentrations of the disclosed compounds are added to various wells on a plate, followed by a range in concentrations of agonist for each concentration of disclosed compound. The EC50 values for the agonist at each concentration of compound are determined by non-linear curve fitting. A decrease in the EC50 value of the agonist with increasing concentrations of the sample compound (a leftward shift of the agonist concentration-response curve) is an indication of the degree of mGluR4 potentiation at a given concentration of the sample compound. A decrease in the maximal response of the agonist with increasing concentrations of the sample compounds, with or without a rightward shift in agonist potency, is an indication of the degree of noncompetitive antagonism at mGluR4. The second mode also indicates whether the sample compounds also affect the maximum response to mGluR4 to agonists.

T1 sequence (Q14833 33-912): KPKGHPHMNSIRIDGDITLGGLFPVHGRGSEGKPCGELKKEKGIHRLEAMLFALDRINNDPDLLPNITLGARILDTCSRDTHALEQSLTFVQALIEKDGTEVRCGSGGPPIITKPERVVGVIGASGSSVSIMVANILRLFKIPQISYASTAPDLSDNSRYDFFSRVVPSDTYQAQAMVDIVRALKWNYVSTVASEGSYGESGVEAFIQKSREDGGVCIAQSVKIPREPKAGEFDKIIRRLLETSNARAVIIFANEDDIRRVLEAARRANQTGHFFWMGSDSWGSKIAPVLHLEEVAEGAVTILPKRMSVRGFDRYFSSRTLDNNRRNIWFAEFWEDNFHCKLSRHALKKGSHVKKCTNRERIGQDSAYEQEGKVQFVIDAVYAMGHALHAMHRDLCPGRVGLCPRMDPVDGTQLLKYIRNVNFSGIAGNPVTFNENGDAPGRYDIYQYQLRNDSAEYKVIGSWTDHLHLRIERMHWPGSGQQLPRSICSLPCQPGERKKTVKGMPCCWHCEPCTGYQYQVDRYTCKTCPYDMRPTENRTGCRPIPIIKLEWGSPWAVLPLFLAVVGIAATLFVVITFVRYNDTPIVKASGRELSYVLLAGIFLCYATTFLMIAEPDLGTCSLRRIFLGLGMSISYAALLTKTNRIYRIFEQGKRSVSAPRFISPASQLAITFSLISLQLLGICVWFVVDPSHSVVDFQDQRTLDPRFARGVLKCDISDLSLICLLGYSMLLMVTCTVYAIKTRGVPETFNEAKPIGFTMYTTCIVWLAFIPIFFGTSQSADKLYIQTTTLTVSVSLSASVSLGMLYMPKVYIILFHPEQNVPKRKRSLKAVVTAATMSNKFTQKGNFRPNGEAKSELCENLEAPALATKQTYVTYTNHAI

Take `Cc1nc[nH]c1-c1nc2cc(S(=O)(=O)Nc3ccccc3Cl)ccc2[nH]1` [Example 44, N-(2-chlorophenyl)-2-(4-methyl-1H-imidazol-5-yl)-1H-benzo[d]imidazole-5-sulfonamide]: the Emax stood at 36% and the EC50 worked out at 13400 nM.
Regarding `CC1CCN(S(=O)(=O)c2ccc3[nH]c(-c4ccccn4)nc3c2)CC1` [Example 45, 5-((4-methylpiperidin-1-yl)sulfonyl)-2-(pyridin-2-yl)-1H-benzo[d]imidazole], the Emax was 104% and the EC50 came out at 7450 nM.
`O=S(=O)(Nc1ccccc1Cl)c1ccc2[nH]c(C3CCCCO3)nc2c1` (stereo not drawn) [Example 46, N-(2-chlorophenyl)-2-(tetrahydro-2H-pyran-2-yl)-1H-benzo[d]imidazole-5-sulfonamide]: the Emax worked out at 112% and the EC50 was determined as 2350 nM.
On to `O=S(=O)(Nc1ccc(F)cc1F)c1ccc2[nH]c(-c3nccs3)nc2c1` [Example 47, N-(2,4-difluorophenyl)-2-(thiazol-2-yl)-1H-benzo[d]imidazole-5-sulfonamide], for which the Emax was 147% and the EC50 turned out to be 709 nM.
Take `CCc1ccc(NS(=O)(=O)c2ccc3[nH]c(-c4ccsc4)nc3c2)cc1` [Example 48, N-(4-ethylphenyl)-2-(thiophen-3-yl)-1H-benzo[d]imidazole-5-sulfonamide]: the Emax is 85% and the EC50 worked out at 313 nM.
`CN(c1ccccc1F)S(=O)(=O)c1ccc2[nH]c(-c3ccccn3)nc2c1` [Example 50, N-(2-fluorophenyl)-N-methyl-2-(pyridin-2-yl)-1H-benzo[d]imidazole-5-sulfonamide]: the Emax turned out to be 61% and the EC50 turned out to be 1110 nM.
In the same order, the values of `O=S(=O)(Nc1ccc(F)cc1F)c1ccc2[nH]c(-c3ccccn3)nc2c1` [Example 51, N-(2,4-difluorophenyl)-2-(pyridin-2-yl)-1H-benzo[d]imidazole-5-sulfonamide] are 252% and 99 nM.
Take `O=S(=O)(Nc1ccc(F)cc1F)c1ccc2[nH]c(-c3cccc(F)n3)nc2c1` [Example 52, N-(2,4-difluorophenyl)-2-(6-fluoropyridin-2-yl)-1H-benzo[d]imidazole-5-sulfonamide]: the Emax was 226% and the EC50 turned out to be 140 nM.
For the compound `CN1CCCCC1c1nc2cc(S(=O)(=O)Nc3ccccc3Cl)ccc2[nH]1` (stereo not drawn) [Example 53, N-(2-chlorophenyl)-2-(1-methylpiperidin-2-yl)-1H-benzo[d]imidazole-5-sulfonamide], the Emax amounted to 59% and the EC50 was greater than 10000 nM.
